# Source: patent US20250236616A1, “IMMUNOMODULATING AZALIDES” (Zoetis Services LLC, priority 2021, published 2025)
# Experiments:
# [1] = test system: TNF-α; experiment: Whole bovine blood assay, LPS-induced TNF-α; format: cell-based; details: Bos taurus, fresh whole bovine blood, LPS stimulant; top drug concentration 250 μM
# In short: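 Fresh heparinized bovine whole blood was preincubated with compound 4 h at 37 °C, then stimulated with LPS (final 1 μg/mL) for 18 h at 37 °C. Plasma TNF-α was quantified by MSD U-Plex chemiluminescent immunoassay, normalized to total protein (BCA), and IC50 taken for LPS-induced TNF-α inhibition.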
# [2] = test system: IL-6; experiment: Whole bovine blood assay, LPS-induced IL-6; format: cell-based; details: Bos taurus, fresh whole bovine blood, LPS stimulant; top drug concentration 250 μM
# [3] = test system: BRD pathogens, M. haemolytica and P. multocida; experiment: MIC screening panel, BRD pathogens (CLSI broth micro-dilution); format: cell-based; details: BRD pathogenic strains / target pathogens; read-out: MIC
# In short: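 MICs were determined by CLSI broth micro-dilution in cation-adjusted Mueller Hinton Broth at about 5×10^5 CFU/mL, with QC strains included. Incubation was 18-22 h at 35-37° C. in air, 5% CO2 or anaerobically (up to 48 h) depending on strain. BRD pathogens were first tested at a top concentration of 64 μg/mL in an eleven-point dilution series.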
# [4] = PK study, plasma concentration; format: in vivo; details: 10 mg/kg dose
# Protocol: The primary clinical endpoint for efficacy was treatment failure/success over a 14-day observation period. Clinically normal beef calves (150-200 kg) at moderate risk for BRD were dosed on arrival to the feedlot. Animals (N=114/group) received saline (T01), 5 mg/kg M9 (T02) or 10 mg/kg M9 (T03); or Zactran (T04).
SMILES,IC50 [1],IC50 [2],MIC [3],maximum plasma concentration [4]
"CC[C@H]1OC(=O)[C@H](C)[C@@H](O[C@H]2C[C@@](C)(OC)[C@](O)(CN3CCCCC3)[C@H](C)O2)[C@H](C)[C@@H](O[C@@H]2O[C@H](C)C[C@H](N(C)S(=O)(=O)Nc3ccc(C(F)(F)F)cc3)[C@H]2O)[C@](C)(O)C[C@@H](C)CN[C@H](C)[C@@H](O)[C@]1(C)O [Example C-11, (2R,3S,4R,5R,8R,10R,11R,12S, 13S, 14R)-2-ethyl-3,4, 10-trihydroxy-13-[(2R,4R,5S,6S)-5-hydroxy-4-methoxy-4,6-dimethyl-5-(piperidin-1-ylmethyl)oxan-2-yl]oxy-11-[(2S,3R,4S,6R)-3-hydroxy-6-methyl-4-[methyl-[[4-(trifluoromethyl)phenyl]sulfamoyl]amino]oxan-2-yl]oxy-3,5,8, 10, 12, 14-hexamethyl-15-oxo-1-oxa-6-azacyclopentadecane]",17 µM,13 µM,,
"CCCNC[C@]1(O)[C@H](C)O[C@@H](O[C@H]2[C@H](C)[C@@H](O[C@@H]3O[C@H](C)C[C@H](N(C)S(=O)(=O)c4ccc(C)cc4)[C@H]3O)[C@](C)(O)C[C@@H](C)CN[C@H](C)[C@@H](O)[C@](C)(O)[C@@H](CC)OC(=O)[C@@H]2C)C[C@@]1(C)OC [Example B-26, N-((2S,3R,4S,6R)-2-(((2R,3S,4R,5R,8R,10R,11R,12S,13S,14R)-2-ethyl-3,4,10-trihydroxy-13-(((2R,4R,5S,6S)-5-hydroxy-4-methoxy-4,6-dimethyl-5-((propylamino)methyl)tetrahydro-2H-pyran-2-yl)oxy)-3,5,8,10,12,14-hexamethyl-15-oxo-1-oxa-6-azacyclopentadecan-11-yl)oxy)-3-hydroxy-6-methyltetrahydro-2H-pyran-4-yl)-N,4-dimethylbenzenesulfonamide]",20 µM,,,
"CCCNC[C@]1(O)[C@H](C)O[C@@H](O[C@H]2[C@H](C)[C@@H](O[C@@H]3O[C@H](C)C[C@H](N(C)S(=O)(=O)Nc4ccc(C(F)(F)F)cc4)[C@H]3O)[C@](C)(O)C[C@@H](C)CN[C@H](C)[C@@H](O)[C@](C)(O)[C@@H](CC)OC(=O)[C@@H]2C)C[C@@]1(C)OC [Example B-50, (2R,3S,4R,5R,8R,10R,11R,12S,13S, 14R)-2-ethyl-3,4,10-trihydroxy-13-[(2R,4R,5S,6S)-5-hydroxy-4-methoxy-4,6-dimethyl-5-(propylaminomethyl)oxan-2-yl]oxy-11-[(2S,3R,4S,6R)-3-hydroxy-6-methyl-4-[methyl-[[4-(trifluoromethyl)phenyl]sulfamoyl]amino]oxan-2-yl]oxy-3,5,8, 10, 12, 14-hexamethyl-15-oxo-1-oxa-6-azacyclopentadecane]",,49 µM,,
"CC[C@H]1OC(=O)[C@H](C)[C@@H](O)[C@H](C)[C@@H](O[C@@H]2O[C@H](C)C[C@H](N(C)S(=O)(=O)c3ccccc3)[C@H]2Oc2ccc(OC)cc2)[C@](C)(O)C[C@@H](C)CN[C@H](C)[C@@H](O)[C@]1(C)O [Example A-9, N-((2S,3R,4S,6R)-2-(((2R,3S,4R,5R,8R,10R,11R,12S,13S,14R)-2-ethyl-3,4,10,13-tetrahydroxy-3,5,8,10, 12, 14-hexamethyl-15-oxo-1-oxa-6-azacyclopentadecan-11-yl)oxy)-3-(4-methoxyphenoxy)-6-methyltetrahydro-2H-pyran-4-yl)-N-methylbenzenesulfonamide]",4 µM,21 µM,,
"CC[C@H]1OC(=O)[C@H](C)[C@@H](O[C@H]2C[C@@](C)(OC)[C@](O)(CN3CCCCC3)[C@H](C)O2)[C@H](C)[C@@H](O[C@@H]2O[C@H](C)C[C@H](N(C)S(=O)(=O)c3ccc(Cl)cc3)[C@H]2O)[C@](C)(O)C[C@@H](C)CN[C@H](C)[C@@H](O)[C@]1(C)O [Example C-4, 4-chloro-N-((2S,3R,4S,6R)-2-(((2R,3S,4R,5R,8R,10R,11R,12S,13S,14R)-2-ethyl-3,4,10-trihydroxy-13-(((2R,4R,5S,6S)-5-hydroxy-4-methoxy-4,6-dimethyl-5-(piperidin-1-ylmethyl)tetrahydro-2H-pyran-2-yl)oxy)-3,5,8, 10, 12, 14-hexamethyl-15-oxo-1-oxa-6-azacyclopentadecan-11-yl)oxy)-3-hydroxy-6-methyltetrahydro-2H-pyran-4-yl)-N-methylbenzenesulfonamide]",5 µM,,,
"CCCNC[C@]1(O)[C@H](C)O[C@@H](O[C@H]2[C@H](C)[C@@H](O[C@@H]3O[C@H](C)C[C@H](NC)[C@H]3O)[C@](C)(O)C[C@@H](C)CN[C@H](C)[C@@H](O)[C@](C)(O)[C@@H](CC)OC(=O)[C@@H]2C)C[C@@]1(C)OC [Example M9, (2R,3S,4R,5R,8R,10R,11R,12S,13S,14R)-2-ethyl-3,4, 10-trihydroxy-13-(((2R,4R,5S,6S)-5-hydroxy-4-methoxy-4,6-dimethyl-5-((propylamino)methyl)-tetrahydro-2H-pyran-2-yl)oxy)-11-(((2S,3R,4S,6R)-3-hydroxy-6-methyl-4-(methylamino)tetrahydro-2H-pyran-2-yl)oxy)-3,5,8,10,12,14-hexamethyl-1-oxa-6-azacyclopentadecan-15-one]",250 µM,,≤ 64 mg/L,5 µg/mL
